Tests used:
[1] = tested on: patients with atherosclerosis undergoing PCI; assay type: in vivo; details: human, in vivo, 48 h
Method: The primary safety end point was severe bleeding not related to coronary-artery bypass grafting, according to the Global Use of Strategies to Open Occluded Coronary Arteries (GUSTO) criteria, at 48 hours. Several other bleeding definitions were also applied.

platelets = experiment: Example 4: light transmission aggregometry (LTA) induced by 5 and 20 μM ADP; assay type: in vivo, human
Method: The study involved 12 patients who met the criteria of being 18-75 years of age, having coronary artery disease (CAD) documented by a previous MI or coronary revascularization, and taking 81 mg of aspirin daily. […] Prohibited concomitant medications included strong and potent CYP3A inhibitors, simvastatin and lovastatin at doses more than 40 mg/day, omeprazole or esomeprazole, and digoxin. Use of non-steroidal anti-inflammatory agents was discouraged during study participation but not prohibited.
Each patient was administered a 30 μg/kg bolus of cangrelor followed immediately by a 2 hr infusion at a rate of 4.0 μg/kg/min. A loading dose of ticagrelor (180 mg) was given after 0.5 hr or 1.25 hr (n=6 for each). Blood for pharmacodynamic platelet function studies was taken after 0.5 or 1.25 hr (corresponding to the time of ticagrelor load, n=6 for each), and then at 1.75, 2, 2.25, 2.5, 2.75, 3, 4, and 5.25 hr. Patients were assigned randomly to receive either 6 (n=6) or 7 (n=6) doses of ticagrelor to be taken every 12 hours following the discontinuation of the infusion of cangrelor. On study day 5, each patient was administered a 30 μg/kg bolus of cangrelor followed immediately by a 2 hr infusion at a rate of 4.0 μg/kg/min. Blood for pharmacodynamic assessment was taken after 1 and 2 hr. Adverse events were queried throughout study participation that ended with a telephone interview performed on study day 10-12.
Pharmacodynamic assessment included light transmission aggregometry (LTA), VerifyNow® P2Y12 assay, vasodilator-stimulated phosphoprotein (VASP) index, and platelet activation measured with the use of flow cytometry. Assessment of LTA, VerifyNow®, and platelet activation with the use of flow cytometry was performed within 30 min of blood being taken. In the case of flow cytometry, samples were processed to fixation and then batched for analysis. For VASP, index samples were batched and processed as recommended by the vendor within 2 h of blood being taken. This approach limited the time from fixation of VASP index to flow analysis to less than 1 h.
LTA induced by 5 μM and 20 μM adenosine diphosphate (ADP) was quantified ex vivo (i.e. in non-adjusted platelet rich plasma). Platelet-poor plasma was set as 100% aggregation, and both maximal (peak) and terminal (at 300 s) aggregation were measured with a PAP4 aggregometer (BioData, Horsham, Pa.). VerifyNow® P2Y12 assay (Accumetrics Inc, San Diego, Calif.) that measures the effects of drugs on the P2Y12 receptor by activating platelets with prostaglandin El in addition to ADP was used in accordance with the instructions provided by the manufacturer. Platelet reactivity was expressed in P2Y12 reaction units (PRU). Activation of platelets was identified with the use of flow cytometry as previously described.^17. And to determine the VASP index, a commercially available kit (Diagnostica Stago, Inc, Parsippany NJ) was used. ^17 Schneider D J, Sobel B E. Streamlining the design of promising clinical trials: in-vitro testing of antithrombotic regimens and multiple agonists of platelet activation. Coron Artery Dis. 2009; 20:175-8.

[2] = reference 5.25 h, Ticagrelor at 0.5 h
[3] = reference 5.25 h, Ticagrelor at 1.25 h
[4] = ticagrelor at 0.5 hr, 1.75 hr later (at 2.25 hr)
[5] = ticagrelor at 1.25 hr, 1.75 hr after the loading dose (at 3.0 hr)

COC(=O)[C@H](c1ccccc1Cl)N1CCc2sccc2C1 [Clopidogrel, clopidogrel, reference compound]
Any blood transfusion [1]: 16/5527 (0.3) number/total number (percent)
GUSTO-defined bleeding, primary safety end point: severe or life-threatening bleeding [1]: 6/5527 (0.1) number/total number (percent)
GUSTO-defined moderate bleeding [1]: 13/5527 (0.2) number/total number (percent)
GUSTO-defined severe or moderate bleeding [1]: 19/5527 (0.3) number/total number (percent)
TIMI-defined major bleeding [1]: 5/5527 (0.1) number/total number (percent)
TIMI-defined major or minor bleeding [1]: 8/5527 (0.3) number/total number (percent)
TIMI-defined minor bleeding [1]: 3/5527 (0.1) number/total number (percent)
adverse events that led to discontinuation of the study drug [1]: 0.4%
rate of GUSTO-defined severe bleeding (primary safety end point) [1]: 0.11%
rate of adverse events related to treatment [1]: 19.1%
transient dyspnea [1]: 0.3%

CCCSc1nc(N[C@@H]2C[C@H]2c2ccc(F)c(F)c2)c2nnn([C@@H]3C[C@H](OCCO)[C@@H](O)[C@H]3O)c2n1 [ticagrelor]
IPA, 5 μM ADP, LTA (platelets; 2.25 h, All): 87 ± 8%
IPA, 20 μM ADP, LTA (platelets; 2.25 h, All): 83 ± 14%
PR, 5 μM ADP, LTA (platelets; 2.25 h, All): 7 ± 5%
PR, 20 μM ADP, LTA (platelets; 2.25 h, All): 12 ± 11%
IPA, 5 μM ADP, LTA (platelets; 2.25 h, Ticagrelor at 0.5 h): 84 ± 10%
IPA, 20 μM ADP, LTA (platelets; 2.25 h, Ticagrelor at 0.5 h): 82 ± 13%
PR, 5 μM ADP, LTA (platelets; 2.25 h, Ticagrelor at 0.5 h): 7.7 ± 5.9%
PR, 20 μM ADP, LTA (platelets; 2.25 h, Ticagrelor at 0.5 h): 13 ± 9.3%
IPA, 5 μM ADP, LTA (platelets; 2.25 h, Ticagrelor at 1.25 h): 89 ± 5%
IPA, 20 μM ADP, LTA (platelets; 2.25 h, Ticagrelor at 1.25 h): 84 ± 17%
PR, 5 μM ADP, LTA (platelets; 2.25 h, Ticagrelor at 1.25 h): 5.3 ± 3.6%
PR, 20 μM ADP, LTA (platelets; 2.25 h, Ticagrelor at 1.25 h): 11 ± 12%
IPA, 5 μM ADP, LTA (platelets; 2.5 h, All): 79 ± 15%
IPA, 20 μM ADP, LTA (platelets; 2.5 h, All): 72 ± 26%
PR, 5 μM ADP, LTA (platelets; 2.5 h, All): 10 ± 7%
PR, 20 μM ADP, LTA (platelets; 2.5 h, All): 19 ± 16%
IPA, 5 μM ADP, LTA (platelets; 2.5 h, Ticagrelor at 0.5 h): 82 ± 13%
IPA, 20 μM ADP, LTA (platelets; 2.5 h, Ticagrelor at 0.5 h): 78 ± 21%
PR, 5 μM ADP, LTA (platelets; 2.5 h, Ticagrelor at 0.5 h): 10 ± 5.7%
PR, 20 μM ADP, LTA (platelets; 2.5 h, Ticagrelor at 0.5 h): 16 ± 15%
IPA, 5 μM ADP, LTA (platelets; 2.5 h, Ticagrelor at 1.25 h): 76 ± 18%
IPA, 20 μM ADP, LTA (platelets; 2.5 h, Ticagrelor at 1.25 h): 65 ± 30%
PR, 5 μM ADP, LTA (platelets; 2.5 h, Ticagrelor at 1.25 h): 11 ± 9%
PR, 20 μM ADP, LTA (platelets; 2.5 h, Ticagrelor at 1.25 h): 21 ± 17%
IPA, 5 μM ADP, LTA (platelets; 2.75 h, All): 86 ± 11%
IPA, 20 μM ADP, LTA (platelets; 2.75 h, All): 86 ± 15%
PR, 5 μM ADP, LTA (platelets; 2.75 h, All): 5.8 ± 3%
PR, 20 μM ADP, LTA (platelets; 2.75 h, All): 10 ± 9.2%
IPA, 5 μM ADP, LTA (platelets; 2.75 h, Ticagrelor at 0.5 h): 87 ± 7%
IPA, 20 μM ADP, LTA (platelets; 2.75 h, Ticagrelor at 0.5 h): 84 ± 15%
PR, 5 μM ADP, LTA (platelets; 2.75 h, Ticagrelor at 0.5 h): 6.7 ± 4.1%
PR, 20 μM ADP, LTA (platelets; 2.75 h, Ticagrelor at 0.5 h): 12 ± 11%
IPA, 5 μM ADP, LTA (platelets; 2.75 h, Ticagrelor at 1.25 h): 85 ± 15%
IPA, 20 μM ADP, LTA (platelets; 2.75 h, Ticagrelor at 1.25 h): 87 ± 15%
PR, 5 μM ADP, LTA (platelets; 2.75 h, Ticagrelor at 1.25 h): 4.8 ± 0.8%
PR, 20 μM ADP, LTA (platelets; 2.75 h, Ticagrelor at 1.25 h): 7.8 ± 7.2%
IPA, 5 μM ADP, LTA (platelets; 3 h, All): 86 ± 17%
IPA, 20 μM ADP, LTA (platelets; 3 h, All): 90 ± 9%
PR, 5 μM ADP, LTA (platelets; 3 h, All): 5.5 ± 5.2%
PR, 20 μM ADP, LTA (platelets; 3 h, All): 7.1 ± 6.3%
IPA, 5 μM ADP, LTA (platelets; 3 h, Ticagrelor at 0.5 h): 85 ± 15%
IPA, 20 μM ADP, LTA (platelets; 3 h, Ticagrelor at 0.5 h): 87 ± 10%
PR, 5 μM ADP, LTA (platelets; 3 h, Ticagrelor at 0.5 h): 8 ± 6.5%
PR, 20 μM ADP, LTA (platelets; 3 h, Ticagrelor at 0.5 h): 10 ± 7.6%
IPA, 5 μM ADP, LTA (platelets; 3 h, Ticagrelor at 1.25 h): 87 ± 21%
IPA, 20 μM ADP, LTA (platelets; 3 h, Ticagrelor at 1.25 h): 93 ± 7%
PR, 5 μM ADP, LTA (platelets; 3 h, Ticagrelor at 1.25 h): 3 ± 1.5%
PR, 20 μM ADP, LTA (platelets; 3 h, Ticagrelor at 1.25 h): 4.5 ± 3.4%
IPA, 5 μM ADP, LTA (platelets; 4 h, All): 88 ± 9%
IPA, 20 μM ADP, LTA (platelets; 4 h, All): 94 ± 4%
PR, 5 μM ADP, LTA (platelets; 4 h, All): 5.5 ± 3.3%
PR, 20 μM ADP, LTA (platelets; 4 h, All): 4.6 ± 3.6%
IPA, 5 μM ADP, LTA (platelets; 4 h, Ticagrelor at 0.5 h): 87 ± 5%
IPA, 20 μM ADP, LTA (platelets; 4 h, Ticagrelor at 0.5 h): 91 ± 4%
PR, 5 μM ADP, LTA (platelets; 4 h, Ticagrelor at 0.5 h): 7.3 ± 3.9%
PR, 20 μM ADP, LTA (platelets; 4 h, Ticagrelor at 0.5 h): 6.7 ± 3.7%
IPA, 5 μM ADP, LTA (platelets; 4 h, Ticagrelor at 1.25 h): 89 ± 12%
IPA, 20 μM ADP, LTA (platelets; 4 h, Ticagrelor at 1.25 h): 96 ± 4%
PR, 5 μM ADP, LTA (platelets; 4 h, Ticagrelor at 1.25 h): 3.7 ± 1%
PR, 20 μM ADP, LTA (platelets; 4 h, Ticagrelor at 1.25 h): 2.5 ± 1.9%
residual platelet reactivity (platelets; 12 hours after the last dose of ticagrelor, study day 5): 12±9%
residual platelet reactivity (platelets; at 2.5 hr, ticagrelor 180 mg given at 0.5 hr of 2 hr cangrelor infusion): 16±15%
IPA, 5 μM ADP, LTA (platelets; reference 5.25 h, All): 94 ± 5%
IPA, 20 μM ADP, LTA (platelets; reference 5.25 h, All): 95 ± 4%
PR, 5 μM ADP, LTA (platelets; reference 5.25 h, All): 3.1 ± 2.8%
PR, 20 μM ADP, LTA (platelets; reference 5.25 h, All): 4 ± 3.4%
IPA, 5 μM ADP, LTA (platelets; [2]): 92 ± 6%
IPA, 20 μM ADP, LTA (platelets; [2]): 92 ± 4%
PR, 5 μM ADP, LTA (platelets; [2]): 4.2 ± 2%
PR, 20 μM ADP, LTA (platelets; [2]): 5.8 ± 3.1%
IPA, 5 μM ADP, LTA (platelets; [3]): 97 ± 4%
IPA, 20 μM ADP, LTA (platelets; [3]): 97 ± 4%
PR, 5 μM ADP, LTA (platelets; [3]): 2 ± 2.3%
PR, 20 μM ADP, LTA (platelets; [3]): 2.2 ± 2.7%
extent of inhibition (platelets; [4]): 82±13%
residual platelet reactivity (platelets; [4]): 13±9.3%
extent of inhibition (platelets; [5]): 93±7%
residual platelet reactivity (platelets; [5]): 4.5±3.4%

From patent publication US8680052B1, “Methods of treating, reducing the incidence of, and/or preventing ischemic events” (The Medicines Company, priority 2013, dated 2014)
